The results in this text go back to patent US20190387748A1, “COMPOSITIONS AND RELATED METHODS FOR AGRICULTURE” (priority 2017, published 2019).

In one test the test system is Buchnera. As to the kind of experiment: qPCR of Buchnera/aphid DNA copy numbers (symbiont titer). The format is in vivo, Buchnera aphidicola. Particulars: 10 or 100 uM pantothenol, through plants; 8 days. The method, then: After 7 days of treatment, DNA was extracted from multiple aphids from each treatment group. Briefly, the aphid body surface was sterilized by dipping the aphid into a 6% bleach solution for approximately 5 seconds. Aphids were then rinsed in sterile water and DNA was extracted from each individual aphid using a DNA extraction kit (Qiagen, DNeasy kit) according to manufacturer's instructions. DNA concentration was measured using a nanodrop nucleic acid quantification, and Buchnera and aphid DNA copy numbers were measured by qPCR.
After 6 days of treatment, DNA was extracted from multiple aphids from each treatment group and qPCR for quantifying Buchnera levels was done as described in the previous Example.
After 8 days of treatment, DNA was extracted from multiple aphids from each treatment group. Briefly, the aphid body surface was sterilized by dipping the aphid into a 6% bleach solution for approximately 5 seconds. Aphids were then rinsed in sterile water and DNA was extracted from each individual aphid using a DNA extraction kit (Qiagen, DNeasy kit) according to manufacturer's instructions. DNA concentration was measured using a nanodrop nucleic acid quantification, and Buchnera and aphid DNA copy numbers were measured by qPCR.
After 8 days of treatment, DNA was extracted from the remaining aphids in each treatment group. Briefly, the aphid body surface was sterilized by dipping the aphid into a 6% bleach solution for approximately 5 seconds. Aphids were then rinsed in sterile water and DNA was extracted from each individual aphid using a DNA extraction kit (Qiagen, DNeasy kit) according to manufacturer's instructions. DNA concentration was measured using a nanodrop nucleic acid quantification, and Buchnera and aphid DNA copy numbers were measured by qPCR.
(§1) Briefly, the aphid body surface was sterilized by dipping the aphid into a 6% bleach solution for approximately 5 seconds. Aphids were then rinsed in sterile water and DNA was extracted from each individual aphid using a DNA extraction kit (Qiagen, DNeasy kit) according to manufacturer's instructions. DNA concentration was measured using a nanodrop nucleic acid quantification, and Buchnera and aphid DNA copy numbers were measured by qPCR.
as §1
After 3 days of treatment, DNA was extracted from the remaining living aphids from each treatment group. Briefly, the aphid body surface was sterilized by dipping the aphid into a 6% bleach solution for approximately 5 seconds. Aphids were then rinsed in sterile water and DNA was extracted from each individual aphid using a DNA extraction kit (Qiagen, DNeasy kit) according to manufacturer's instructions. DNA concentration was measured using a nanodrop nucleic acid quantification, and Buchnera and aphid DNA copy numbers were measured by qPCR.
After 5 days of treatment, DNA was extracted from the remaining aphids in each treatment group. Briefly, the aphid body surface was sterilized by dipping the aphid into a 6% bleach solution for approximately 5 seconds. Aphids were then rinsed in sterile water and DNA was extracted from each individual aphid using a DNA extraction kit (Qiagen, DNeasy kit) according to manufacturer's instructions. DNA concentration was measured using a nanodrop nucleic acid quantification, and Buchnera and aphid DNA copy numbers were measured by qPCR.
At 5 days post-treatment, DNA was extracted from several aphids in each treatment group. Briefly, the aphid body surface was sterilized by dipping the aphid into a 6% bleach solution for approximately 5 seconds.

Test [1] has as its system Acyrthosiphon pisum aphids. As to the kind of experiment: Aphid fecundity (offspring production). The format is in vivo. The following applies: 10 or 100 uM pantothenol. How it is done:
In addition, the developmental stage (1st, 2nd, 3rd, 4th, 5th instar) was determined daily throughout the experiment. Once an aphid reached the 4th instar stage, they were given their own artificial feeding system in a deep petri dish so that fecundity could be monitored once they reached adulthood.
For adult aphids, new nymphs were counted daily and then discarded. At the end of the experiments, fecundity was determined as the mean number of offspring produced daily once the aphid reached adulthood. Pictures of aphids were taken throughout the experiment to evaluate size differences between treatment groups.
In addition, the developmental stage (1st, 2nd, 3rd, 4th, 5th, and 5R (5th that has reproduced) instar) was determined daily throughout the experiment. Once an aphid reached the 4th instar stage, they were given their own artificial feeding system in a deep petri dish so that fecundity could be monitored once they reached adulthood.
For adult aphids, new nymphs were counted daily and then discarded. At the end of the experiments, fecundity was measured in two ways: 1) the mean day at which the first offspring for the treatment group was determined and 2) the mean number of offspring produced daily once the aphid reached adulthood. […]
In addition, the developmental stage (1st, 2nd, 3rd, 4th, 5th instar) was determined daily throughout the experiment. […]

For test [2], the system named is Acyrthosiphon pisum aphids. As to the kind of experiment: Aphid survival monitoring. It counts as in vivo. The text has this: For each treatment, 33 aphids were placed onto each leaf. Artificial diet feeding systems were changed every 2-3 days throughout the experiment. Aphids were monitored daily for survival and dead aphids were removed from the deep petri dish housing the artificial feeding system when they were discovered.
Each treatment group received approximately the same number of individuals from each of the collection plant. For each treatment, 20 aphids were placed onto each leaf. Aphids were monitored daily for survival and dead aphids were removed when they were discovered. In addition, the developmental stage (1st, 2nd, 3rd, 4th, 5th instar, and 5R, representing a reproducing 5th instar) was determined daily throughout the experiment. Pictures of aphids were taken throughout the experiment to evaluate size differences between treatment groups.
(Vroma vicia faba from Johnny's Selected Seeds) in a climate-controlled incubator (16 h light/8 h dark photoperiod; 60±5% RH; 25±2° C.). Prior to being used for aphid rearing, fava bean plants were grown in potting soil at 24° C. with 16 h of light and 8 h of darkness. To limit maternal effects or health differences between plants, 5-10 adults from different plants were distributed among 10 two-week-old plants, and allowed to multiply to high density for 5-7 days. For experiments, first and second instar aphids were collected from healthy plants and divided into 2 different treatment groups: 1) negative control (leaf injected with water plus blue food coloring) and 2) leaf injected with 50 μg/ml rifampicin in water plus blue food coloring. Each treatment group received approximately the same number of individuals from each of the collection plants. For treatment, rifampicin stock solution (25 mg/ml in 100% methanol) was diluted to 50 μg/ml in water plus blue food coloring. The solution was then placed into a 1.5 ml Eppendorf tube with a fava bean stem perfused with the solutions and the opening of the tube was closed using parafilm. This feeding system was then placed into a deep petri dish (Fisher Scientific, Cat# FB0875711) and aphids were applied to the leaves of the plant. For each treatment, 74-81 aphids were placed onto each leaf. The feeding systems were changed every 2-3 days throughout the experiment. Aphids were monitored daily for survival and dead aphids were removed from the deep petri dish when they were discovered. In addition, the developmental stage (1st, 2nd, 3rd, 4th, 5th and 5R (5th that has reproduced) instar) was determined daily throughout the experiment.
For each treatment, 49-50 aphids were placed onto each leaf. The feeding systems were changed every 2-3 days throughout the experiment. Aphids were monitored daily for survival and dead aphids were removed from the deep petri dish when they were discovered.
For each treatment, 76-80 aphids were placed onto each leaf. The feeding systems were changed every 2-3 days throughout the experiment. Aphids were monitored daily for survival and dead aphids were removed from the deep petri dish when they were discovered.
For each treatment, 50-51 aphids were placed onto each leaf. The feeding systems were changed every 2-3 days throughout the experiment. Aphids were monitored daily for survival and dead aphids were removed from the deep petri dish when they were discovered.
For each treatment, 56-59 aphids were placed onto each leaf. The feeding systems were changed every 2-3 days throughout the experiment. Aphids were monitored daily for survival and dead aphids were removed from the deep petri dish when they were discovered.
For each treatment, 57-59 aphids were placed onto each leaf. The feeding systems were changed every 2-3 days throughout the experiment. Aphids were monitored daily for survival and dead aphids were removed from the deep petri dish when they were discovered.
For each treatment, 15-87 aphids were placed onto each leaf. Artificial diet feeding systems were changed every 2-3 days throughout the experiment.

“Also recorded” adds a separate entry of the source.

With `CC(C)(CO)[C@@H](O)C(=O)NCCCO` [pantothenol], the “Buchnera/aphid DNA copies” value with Buchnera is given as “did not affect endosymbiotic Buchnera; also recorded: high ratios of Buchnera/aphid DNA copies”. Also, in test [1], the Aphid reproduction entry is on record as “loss of reproduction”. Moreover, in test [2] (10 or 100 uM pantothenol, through plants), the “Aphid survival / mortality” value is listed as “increased aphid mortality; also recorded: negatively affected aphid fitness”. In addition, the Aphid survival rate result in test [2] (leaf coating, 10 uM pantothenol) is listed as “resulted in aphid death; also recorded: lower survival rates than aphids placed on coated leaves with the control solution”.
